Data set [1] concerns the target T1, DDB1- and CUL4-associated factor 16/Bromodomain-containing protein 4 (Homo sapiens, UniProt O60885+Q9NXF7). Description: Molecular glue degradation (MGD) activity at DCAF16/BRD4 in human K562 cells assessed as maximum degradation incubated for 16 hrs by fluorescent stability reporter assay relative to control. It is filed as cell-based. A general note: In a reporter assay the amount or activity of a reporter protein is the signal.

Data set [2] has as its target T1, DDB1- and CUL4-associated factor 16/Bromodomain-containing protein 4. Description: Molecular glue degradation (MGD) activity at DCAF16/BRD4 in human K562 cells incubated for 16 hrs. It is filed as cell-based.
For data set [3] the target is unchanged. Description: Binding affinity to DCAF16/eGF-tagged BRD4 BD2 (unknown origin) assessed as ternary complex formation by measuring maximum TR-FRET ratio at 100 uM incubated for 1 hrs by TR-FRET assay. It is filed as protein assay. On the technique in general: Time-resolved FRET reads energy transfer from a long-lived donor to a nearby acceptor.
A short description of data set [4]: Stability of compound in PBS assessed as half lives incubated for 1 hrs by LC-MS/MS analysis. It is filed as physicochemical.
Data set [5] is described as follows: Glutathione reactivity in PBS buffer assessed as half lives incubated for 1 hrs by LC-MS/MS analysis. It is filed as physicochemical.
Data set [6] deals with T1, DDB1- and CUL4-associated factor 16/Bromodomain-containing protein 4. Description: Binding affinity to DCAF16/eGF-tagged BRD4 BD2 (unknown origin) assessed as ternary complex formation by measuring maximum TR-FRET ratio at 100 uM incubated for 24 hrs by TR-FRET assay. It is filed as protein assay.
For data set [7], the system named is K562. Description: Induction of eGF-tagged BRD4 BD2 degradation in DCAF16 knock out human K562 cells at 1 uM incubated for 16 hrs by Western blot analysis. It is filed as cell-based. In general terms: A western blot detects proteins with antibodies after separation by electrophoresis.
For data set [8], the system named is Jurkat. Description: Molecular glue degradation (MGD) activity at BRD4 in DCAF16 knock out human Jurkat cells assessed as BRD4 degradation at 0.01 to 10 uM incubated for 6 hrs by Nano-Glo HiBiT assay. It is filed as cell-based. As to conditions: dose 0.01-10 µM.
In data set [9] the target is T1, DDB1- and CUL4-associated factor 16/Bromodomain-containing protein 4. Description: Molecular glue degradation (MGD) activity at DCAF16/BRD4 in wild type human Jurkat cells assessed as BRD4 degradation at 10 nM incubated for 6 hrs by Nano-Glo HiBiT assay. It is filed as cell-based.
Data set [10] shares this target. Description: Molecular glue degradation (MGD) activity at DCAF16/BRD4 in wild type human Jurkat cells assessed as BRD4 degradation at < 100 nM incubated for 6 hrs by Nano-Glo HiBiT assay. It is filed as cell-based.
The target is the same in data set [11]. Description: Binding affinity to His-tagged BRD4 BD2 (unknown origin) assessed as ternary complex formation at 0.001 to 100 uM incubated for 1 to 24 hrs by TR-FRET assay. It is filed as protein assay. As to conditions: dose 0.001-100 µM, time 1-24 hrs.
Data set [12] shares this target. Description: Molecular glue degradation (MGD) activity at DCAF16/ BRD4 BD2 in human K562 cells transfected with […] incubated for 16 hrs by fluorescent stability reporter assay. It is filed as cell-based. As to conditions: dose 0.001-10 µM.
For data set [13] the target is unchanged. Description: Molecular glue degradation (MGD) activity at DCAF16/BRD4 in human K562 cells assessed as covalent-engagement of DCAF16 by measuring BRD4 degradation at 1 uM preincubated for 4 hrs followed by compound addition measured after 24 hrs (no washout experiment) by Western blot analysis. As to conditions: time 28.0 hrs. It is filed as cell-based.

The target is the same in data set [14]. Description: Molecular glue degradation (MGD) activity at DCAF16/BRD4 BD2 in human K562 cells assessed as maximum degradation at 10 uM incubated for 16 hrs by fluorescent stability reporter assay relative to control. It is filed as cell-based.
Data set [15] has the same target. Description: Potency index, ratio of GNE011 MIC to test compound MIC for molecular glue degradation (MGD) activity at DCAF16/BRD4 BD2 in human K562 cells assessed as maximum degradation at 10 uM incubated for 16 hrs by fluorescent stability reporter assay. It is filed as cell-based.

SMILES strings stand for the structures. The source made the active and inactive calls. The rule behind the calls is not given here.

T1 sequence (Q9NXF7 whole entry, looked up, other chains not shown): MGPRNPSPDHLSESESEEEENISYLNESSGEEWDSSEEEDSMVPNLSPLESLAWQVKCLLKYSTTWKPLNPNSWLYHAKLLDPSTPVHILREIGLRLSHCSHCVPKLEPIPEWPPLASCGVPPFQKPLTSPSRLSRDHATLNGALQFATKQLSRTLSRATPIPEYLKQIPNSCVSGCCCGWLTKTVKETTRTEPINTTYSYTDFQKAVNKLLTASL

As a reminder, the Emax is the maximal effect, on the per cent scale that the assay sets. One may read the DC50 as the concentration giving 50% degradation. Usually half-life stands for the time in which the quantity being followed falls by half. Take `Cc1sc2c(c1C)C(c1ccc(C#CC=O)cc1)=N[C@@H](CC(=O)OC(C)(C)C)c1nncn1-2`: in data set [1], the Emax stood at 69%. The 50% degradation concentration (DC50) in data set [2] worked out at 703 nM. Further, the figures for the Ratio in data set [3] and in data set [6] were 2.12 and 0.28, respectively. Besides, the figures for the half-life in data set [4] and in data set [5] were greater than 750 min and 530 min, respectively. Besides, the result in data set [7] and in data set [8] was inactive. Moreover, the Activity is 73% in [9] and greater than 90% in [10].
Turning to `Cc1sc2c(c1C)C(c1ccc(/C=C/C=O)cc1)=N[C@@H](CC(=O)OC(C)(C)C)c1nncn1-2`, the maximal response (Emax) in data set [1] worked out at 75%. In data set [2], the DC50 was 64 nM. Moreover, the figures for the half-life in data set [4] and in [5] were greater than 750 min and 415 min, respectively. Moreover, the outcome in data set [7] and in data set [8] was inactive. For the same compound, in data set [10], the Activity was greater than 90%.
For the compound `Cc1sc2c(c1C)C(c1ccc(C#CCO)cc1)=N[C@@H](CC(=O)OC(C)(C)C)c1nncn1-2`, in data set [1], the Emax was 10%. Also, in data set [2], the DC50 is greater than 10000 nM. In addition, in data set [11], the outcome was inactive.
Regarding `Cc1sc2c(c1C)C(c1ccc(/C=C/C(N)=O)cc1)=N[C@@H](CC(=O)OC(C)(C)C)c1nncn1-2`, the result in data set [12] and in data set [11] was inactive. For the same compound, the half-life in data set [4] and in data set [5] was greater than 750 min each time. The outcome in [13] was Active.
Turning to `Cc1sc2c(c1C)C(c1ccc(C#CC(N)=O)cc1)=N[C@@H](CC(=O)OC(C)(C)C)c1nncn1-2`, in data set [1], the Emax was determined as 69%. Besides, the half-maximal degradation concentration (DC50) in data set [2] is 51 nM. In addition, the values for the half-life in data set [4] and in data set [5] were greater than 750 min and 380 min, respectively. The outcome in data set [7] and in data set [8] was inactive.
In the case of `C=CS(=O)(=O)Nc1ccc(C2=N[C@@H](CC(=O)OC(C)(C)C)c3nncn3-c3sc(C)c(C)c32)cc1`, in [14], the Emax worked out at 95%. For the same compound, the DC50 in [2] came out at 1 nM. In addition, the half-life in data set [4] and in [5] was greater than 750 min throughout. Besides, the result in [7] and in [8] was inactive. For the same compound, the fold change (FC) in data set [15] is 1000.
On to `Cc1sc2c(c1C)C(c1ccc(NC(=O)CCl)cc1)=N[C@@H](CC(=O)OC(C)(C)C)c1nncn1-2`, for which the Emax in data set [14] worked out at 56%. Further, the DC50 in data set [2] was determined as 8 nM. Besides, the half-life in [4] is greater than 750 min; in [5], 531 min. For the same compound, in data set [8], the outcome was inactive. Further, the Activity in [10] was greater than 90%.

The values above are taken from ChEMBL document CHEMBL6127084, “Exploration of the tunability of BRD4 degradation by DCAF16 trans-labelling covalent glues” (Eur J Med Chem, 2024).
